Here are results for 2 compounds from patent publication US8153424B2, “Method of in vitro differentiation of neural stem cells, motor neurons and dopamine neurons from primate embryonic stem cells” (Wisconsin Alumni Research Foundation, priority 2001, dated 2012).

What all share (assay type): cell-based, human
Assay [1] has as its system hESC-derived EBs (H9 and H9.2 lines). Nature of the assay: Formation of neural tube-like structures from embryoid bodies in the presence of FGF2. The note with it: total 350 EBs from H9 and H9.2 lines, 3 separate experiments. The protocol:
Differentiation cultures of ESCs. ESC cultures were incubated with dispase (Gibco BRL, 0.1 mg/ml) at 37° C. for 30 minutes, which removed ESC colonies intact. The ES cell colonies were pelleted, resuspended in ESC medium without FGF2, and cultured for four days in a 25-cm^2 tissue culture flask (Nunc) with a daily medium change. ESC colonies grew as floating EBs whereas any remaining feeder cells adhered to the flask. The feeder cells were removed by transferring the EBs into a new flask. EBs (˜50/flask) were then plated in a 25-cm^2 tissue culture flask (Nunc) in DMEM/F12, supplemented with insulin (25 μg/ml), transferrin (100 μg/ml), progesterone (20 nM), putrescine (60 μM), sodium selenite (30 nM), and heparin (2 μg/ml) in the presence of FGF2 (20 ng/ml) (Zhang et al., supra, 2000; Zhang et al., supra, 1999).

Assay [2] deals with hESC-derived neural precursors. Briefly: BrdU incorporation by dissociated ES cell-derived neural precursors. The note with it: FGF2 20 ng/ml, EGF 20 ng/ml, LIF 5 ng/ml; each alone. The protocol: Histochemical and immunohistochemical staining. To better visualize the rosette formations, cultures with rosettes were rinsed with PBS and fixed in 4% paraformaldehyde and 0.25% glutaraldehyde for 1 hour. The fixed cells were then processed for embedding in plastic resin as described (Zhang et al., supra, 1999). The cultured cells were then sectioned in 1-μm thickness and stained with toluidine blue. For immunostaining, the coverslip cultures were immunostained with the following primary antibodies detected by appropriate fluorescent secondary antibodies detailed elsewhere (Zhang et al., supra, 2000; Zhang et al., supra, 1999): anti-nestin (polyclonal, gift of Dr. R. McKay of NINDS, 1:1,000); anti-polysialylated neuronal cell adhesion molecule (PSA-NCAM, mouse IgM, gift of Dr. G. Rougon of University of Marseille, France, 1:200); anti-Musashi-1 (rat IgG, gift of Dr. H. Okano, University of Tokyo, Japan, 1:500); anti-GFAP (polyclonal, Dako, 1:1,000); anti-human GFAP (Sternberg monoclonals, 1:10,000); O4 (mouse IgM, hybridoma supernatant, 1:50); anti-tyrosine hydroxylase (TH, Pel Freez, 1:500). The remaining antibodies were from Sigma: anti-βIII-tubulin (mouse IgG, 1:500); anti-neurofilament (NF) 68 (mouse IgG, 1:1,000); anti-NF 200 (polyclonal, 1:5,000); anti-MAP2ab (mouse IgG, 1:250); anti-γ-aminobutyric acid (GABA, polyclonal, 1:10,000); anti-glutamate (mouse IgG, 1:10,000). For bromodeoxyuridine (BrdU) incorporation, 4 coverslip cultures in each group were incubated with 2 μM of BrdU for sixteen hours before the cultures were fixed in 4% paraformaldehyde, denatured with 1N HCl and processed for immunolabeling and cell counting (Zhang et al., supra, 2000; Zhang et al., supra, 1999).
(In general: Dividing cells build labelled thymidine or BrdU into new DNA.)

Assay [3] deals with early rosette cells (Pax6+/Sox1-). Nature of the assay: RT-PCR of rostrocaudal genes in early rosette cells. The note with it: RA 0.001-1.0 μM or FGF2 20 ng/ml for seven days; dose-dependent. The protocol:
RT-PCR amplifications were performed from hESC-derived neuroectodermal cells at different stages and motor neuron differentiation cultures. The following primers were used: […] ID NO:11), [NT] ID NO:12), 318 bp; […] ID NO:13), [NT] ID NO:14), 290 bp; […] ID NO:15), [NT] ID NO:16), 340 bp; […] ID NO:17), [NT] ID NO:18), 429 bp; HoxBl, [NT] ID NO:19), [NT] ID NO:20), 218 bp; GAPDH, [NT] ID NO:1), [NT] ID NO:2), 450 bpi Olig-2, [NT] ID NO:21), [NT] ID NO:22), 315 bp; […] ID NO:23), [NT] ID NO:24), 337 bp; […] ID NO:25), [NT] ID NO:26), 473 bp; […] ID NO:27), [NT] ID NO:28), 459 bp; SHH, [NT] ID NO:29), [NT] ID NO:30), 339 bp; […] ID NO:31), [NT] ID NO:32), 335 bp.

In assay [4] the test system is voltage-gated sodium channels.
In assay [5] the test system is voltage-activated sodium channels.

With “FGF2: growth factor FGF2 (Peprotech; R & D Systems)”, the “EBs forming neural tube-like structures” value in assay [1] is 94%. For the same compound, the “BrdU incorporation (stimulation of precursor cell proliferation)” value in assay [2] is reported as “elevated”. The “Expression of Otx2 and Hox genes (Hox B1, B6, C5, C8)” value in assay [3] is “decreased expression of Otx2 and increased expression of Hox genes”.
Regarding `NC1=N[C@H](O)[C@H]2[C@H]3O[C@]4(O)O[C@@H]([C@@H](O)[C@@]2(N1)[C@@H]4O)[C@]3(O)CO` [TTX, tetrodotoxin], in assay [4], the “Effect on inward currents” value is “completely blocked”. Further, the “Effect on inward currents and action potentials” value in assay [5] is “blocked”.
